Source: ChEMBL document CHEMBL1201862, “PubChem BioAssay data set” (2004)
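How tested: cells in 96-well plates exposed to compound for 48 hours at five concentrations. GI50 is the concentration that inhibits growth by half.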 The source made the active and inactive calls. No stated cut-off is given here; in the data, active = GI50 up to about 1.1 µM and inactive = higher.

Assays:
Assay in all cases: NCI-60 cell line screen, 48 h
CAKI-1 = system: CAKI-1
HCT-116 = system: HCT-116
HL-60 = system: HL-60
HOP-62 = system: HOP-62
HOP-92 = system: HOP-92
LOX IMVI = system: LOX IMVI
MDA-MB-435 = system: MDA-MB-435
NCI-H226 = system: NCI-H226
NCI-H23 = system: NCI-H23
NCI-H460 = system: NCI-H460
NCI-H522 = system: NCI-H522
OVCAR-5 = system: OVCAR-5
RPMI-8226 = system: RPMI-8226
RXF 393 = system: RXF 393
SF-295 = system: SF-295
SF-539 = system: SF-539
SK-MEL-5 = system: SK-MEL-5
SK-OV-3 = system: SK-OV-3
SW-620 = system: SW-620
NCI/ADR-RES = system: NCI/ADR-RES

SMILES	GI50 (CAKI-1)	GI50 (HCT-116)	GI50 (HL-60)	GI50 (HOP-62)	GI50 (HOP-92)	GI50 (LOX IMVI)	GI50 (MDA-MB-435)	GI50 (NCI-H226)	GI50 (NCI-H23)	GI50 (NCI-H460)	GI50 (NCI-H522)	GI50 (OVCAR-5)	GI50 (RPMI-8226)	GI50 (RXF 393)	GI50 (SF-295)	GI50 (SF-539)	GI50 (SK-MEL-5)	GI50 (SK-OV-3)	GI50 (SW-620)	GI50 (NCI/ADR-RES)
NC1=C(Cl)C(=O)c2ccccc2C1=O	17.3 µM (inactive)	3.77 µM (inactive)	3.55 µM (inactive)	11.4 µM (inactive)	14.6 µM (inactive)	2.28 µM (inactive)	0.8 µM (active)	7.35 µM (inactive)	1.77 µM (inactive)	3.43 µM (inactive)	5.22 µM (inactive)	10.3 µM (inactive)	18.4 µM (inactive)	7.67 µM (inactive)	6.87 µM (inactive)	8.24 µM (inactive)	0.834 µM (active)	2.52 µM (inactive)	5.42 µM (inactive)	–
C=CCNC(=O)NCCCCC(NC(C)=O)C(=O)NCc1ccccc1 (configuration not stated)	> 100 µM (inactive)	–	> 100 µM (inactive)	> 100 µM (inactive)	> 100 µM (inactive)	> 100 µM (inactive)	–	> 100 µM (inactive)	> 100 µM (inactive)	> 100 µM (inactive)	> 100 µM (inactive)	> 100 µM (inactive)	> 100 µM (inactive)	> 100 µM (inactive)	> 100 µM (inactive)	> 100 µM (inactive)	> 100 µM (inactive)	> 100 µM (inactive)	> 100 µM (inactive)	–
COc1ccccc1NC(=S)Nc1cc(C)ccn1	> 100 µM (inactive)	> 100 µM (inactive)	> 100 µM (inactive)	66.8 µM (inactive)	–	> 100 µM (inactive)	> 100 µM (inactive)	> 100 µM (inactive)	–	> 100 µM (inactive)	> 100 µM (inactive)	> 100 µM (inactive)	> 100 µM (inactive)	96.6 µM (inactive)	> 100 µM (inactive)	> 100 µM (inactive)	> 100 µM (inactive)	> 100 µM (inactive)	> 100 µM (inactive)	> 100 µM (inactive)
CCC1(O)C(=O)OCc2c1cc1n(c2=O)Cc2c-1nc1ccccc1c2OC (configuration not stated)	< 0.01 µM (active)	0.0453 µM (active)	< 0.01 µM (active)	< 0.01 µM (active)	0.106 µM (active)	< 0.01 µM (active)	–	< 0.01 µM (active)	< 0.0121 µM (active)	< 0.01 µM (active)	0.0242 µM (active)	0.0711 µM (active)	< 0.0212 µM (active)	< 0.0136 µM (active)	< 0.01 µM (active)	< 0.01 µM (active)	0.0184 µM (active)	0.0386 µM (active)	< 0.01 µM (active)	–
N#C/C(=C1\SCC(=O)N1c1ccccc1)c1nc2ccccc2[nH]1	> 100 µM (inactive)	> 100 µM (inactive)	> 100 µM (inactive)	> 100 µM (inactive)	> 100 µM (inactive)	> 100 µM (inactive)	–	> 100 µM (inactive)	> 100 µM (inactive)	> 100 µM (inactive)	> 100 µM (inactive)	> 100 µM (inactive)	–	> 100 µM (inactive)	> 100 µM (inactive)	> 100 µM (inactive)	> 100 µM (inactive)	> 100 µM (inactive)	> 100 µM (inactive)	–
O=C1CC(O)C=C1Nc1ccc(Cl)cc1 (configuration not stated)	10.5 µM (inactive)	30.6 µM (inactive)	13.1 µM (inactive)	79.6 µM (inactive)	49.1 µM (inactive)	25.4 µM (inactive)	–	> 100 µM (inactive)	29 µM (inactive)	23.1 µM (inactive)	11.2 µM (inactive)	90.8 µM (inactive)	–	40.5 µM (inactive)	33.1 µM (inactive)	61.7 µM (inactive)	30.5 µM (inactive)	> 100 µM (inactive)	34.1 µM (inactive)	–
Cc1ccc(NC(=O)CC/C(CC(=O)C(C)(C)C)=N\NC(=O)C[n+]2ccccc2)cc1C	> 100 µM (inactive)	74.5 µM (inactive)	32 µM (inactive)	> 100 µM (inactive)	> 100 µM (inactive)	99.8 µM (inactive)	–	> 100 µM (inactive)	> 100 µM (inactive)	51.9 µM (inactive)	> 100 µM (inactive)	> 100 µM (inactive)	87.7 µM (inactive)	68.1 µM (inactive)	> 100 µM (inactive)	> 100 µM (inactive)	> 100 µM (inactive)	> 100 µM (inactive)	> 100 µM (inactive)	–
COP(=O)(OC)C(NC(=O)C(F)(F)F)(c1ccccc1)C(F)(F)F (configuration not stated)	> 100 µM (inactive)	> 100 µM (inactive)	> 100 µM (inactive)	> 100 µM (inactive)	> 100 µM (inactive)	> 100 µM (inactive)	–	> 100 µM (inactive)	> 100 µM (inactive)	> 100 µM (inactive)	> 100 µM (inactive)	> 100 µM (inactive)	> 100 µM (inactive)	> 100 µM (inactive)	> 100 µM (inactive)	> 100 µM (inactive)	> 100 µM (inactive)	> 100 µM (inactive)	> 100 µM (inactive)	–
